From patent US4820836A, “Prostacyclin (PGI2) analogues” (Shionogi & Co., Ltd., priority 1986, dated 1989) come the findings set out here.

This test concerns Platelet Agglutination. Kind of test: In vitro inhibition of platelet agglutination (rabbit platelet rich plasma, aggregometer) induced by arachidonic acid, collagen or ADP. It is filed as cell-based. The settings on record: Oryctolagus cuniculus, rabbit PRP, Tris buffer. Here is the method:
The inhibitory activity of the representative compounds of the present invention against platelet agglutination is shown in the following in vitro test.
Mature male rabbits (NIBS-JW, RABITON Institute Inc., weighing 2.2-2.7 kg) were used. Under sodium pentobarbital anesthesia (Somnopentyl, Pitman Movre, about 25 mg/Kg, i.v.), blood was with from the carotid artery by cannulation into centrifuge tubes containg 1/10 vol of a 3.8% sodium citrate solution. (The total volume in each tube was adjusted to 8 ml.) The blood in a tube was gentyl mixed by turing and centrifuged for 10 minutes at 210 g at 20° C. to give platelet rich plasma (PRP). The remaining blood was further centrifuged at 3,000 rpm (about 1,900 g) for 10 minutes at 20° C. to give platelet-poor plasma (PPP).
PRP was diluted with PPP to prepare a blood sample whose platelet number was 50-55×10^4 /μl. The sample was then subjected to a platelet agglutination test.
The platelet agglutination was examined by the method of Bron [Born, G.V.R., Nature, 194, 927-929 (1962)], using a Type AUTO RAM-61 aggregometer, (Rika Denki Co., Ltd., Tokyo). A volume of 400 μl of PRP, whose platelet number was adjusted to 50-55×10^4 /μl, was placed in a measuring cuvette and set in the aggregometer. PRP was warmed at 37° C. for 1 minute with stirring at 1,200 rpm, and then a solution of the test compound [dimethylsulfoxide solution (2 μl) of the compound+saline (48 μl); in case of prostaglandin I2 (PGI2) and prostaglandin E1 (PG E1), a solution of each compound (50 μl) in Tris buffer] was added thereto. Exactly 2 minutes later, 50 μl of ADP Pharmacia, U.S.A., (final concentration: 30 μM) or collagen (final muchen, muchen, concentration: 20 μg/ml) or arachidonic acid (sodium salt, Sigma, final concentration (500 μM) was added as a platelet agglutinating agent, and the change in light transmission caused by platelet agglutination was recorded.
The light transmissions of PRP and PPP were taken as 0% and 100% agglutination, respectively, and the maximum light transmission after addition of an agglutinating agent was made to the maxiumum agglutination. The inhibition rate of the platelet agglutination was expressed as the percentage of the maximum agglutination by a test compound to that by a control (Vehicle added group).
Prostaglandin (PG) I2 and E1 are served as standard substances.

Where two headings read alike, the source gives them in different places.

As to `CCCCC[C@H](O)/C=C/[C@@H]1[C@H]2C/C(=C/CCCC(=O)O)O[C@H]2C[C@H]1O` [PGI2, prostaglandin I2], the IC50 came to 0.014 µM (pH 8, ADP, final 30 μM, pH8.0, read-out: Inhibition Activity against Platelet Agglutination [50% Inhibition Concentration (μM)], ADP); 0.054 µM (pH 8, arachidonic acid, final 500 μM, pH8.0, read-out: Inhibition Activity against Platelet Agglutination [50% Inhibition Concentration (μM)], Arachidonic acid); 0.019 µM (pH 8, collagen, final 20 μg/ml, pH8.0, read-out: Inhibition Activity against Platelet Agglutination [50% Inhibition Concentration (μM)], Collagen); 0.016 µM (pH 10, ADP, final 30 μM, pH10.0, read-out: Inhibition Activity against Platelet Agglutination [50% Inhibition Concentration (μM)], ADP); 0.09 µM (pH 10, arachidonic acid, final 500 μM, pH10.0, read-out: Inhibition Activity against Platelet Agglutination [50% Inhibition Concentration (μM)], Arachidonic acid); 0.02 µM (pH 10, collagen, final 20 μg/ml, pH10.0, read-out: Inhibition Activity against Platelet Agglutination [50% Inhibition Concentration (μM)], Collagen).
